Patent US20050002859A1, “COX-2-targeted imaging agents” (Vanderbilt University, priority 2003, published 2005)
Where a chain is given by its changes, count along the chain named. Where two headings read alike, the source gives them in different places. Each block holds one compound with its values, some of them ahead of it.

What was measured:
[1] = test system: rat carageenan footpad edema; experiment: Rat carageenan footpad edema model; assay type: in vivo
Description: The first is the rat carageenan footpad model. Maximal edema is obtained in this model 3 hours after carageenan injection.

Sprague-Dawley rats = experiment: 14-day daily oral toxicity in Sprague-Dawley rats; assay type: in vivo; conditions: daily oral 100 mg/kg, at 14 days
gastric lesions = conditions: rat, in vivo, 100 mg/kg
COX-2 [2] = biological target: T1, COX-2 (Homo sapiens, UniProt P35354); conditions: cited from earlier work
T1 sequence (P35354 18-604): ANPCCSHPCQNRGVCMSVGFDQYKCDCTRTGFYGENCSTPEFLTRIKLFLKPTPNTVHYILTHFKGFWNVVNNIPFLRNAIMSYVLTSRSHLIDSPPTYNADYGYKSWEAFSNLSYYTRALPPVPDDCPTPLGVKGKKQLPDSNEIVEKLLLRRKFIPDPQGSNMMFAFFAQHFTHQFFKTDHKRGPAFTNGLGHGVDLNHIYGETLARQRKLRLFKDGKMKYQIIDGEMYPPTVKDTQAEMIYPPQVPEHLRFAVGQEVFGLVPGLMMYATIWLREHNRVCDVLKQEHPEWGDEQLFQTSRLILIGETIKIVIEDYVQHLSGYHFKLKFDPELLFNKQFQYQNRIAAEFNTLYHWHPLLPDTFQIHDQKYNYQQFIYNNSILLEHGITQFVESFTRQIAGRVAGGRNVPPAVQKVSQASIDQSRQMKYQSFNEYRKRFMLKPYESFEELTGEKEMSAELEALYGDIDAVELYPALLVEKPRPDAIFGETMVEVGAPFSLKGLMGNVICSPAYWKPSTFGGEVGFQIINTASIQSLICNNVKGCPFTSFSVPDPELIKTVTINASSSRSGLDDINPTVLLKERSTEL

S516A mutant of COX-2 = biological target: T2, S516A mutant of COX-2 (Homo sapiens, UniProt P35354, S516A); conditions: cited from earlier work
T2 sequence (P35354 18-604 S516A): T1 sequence (P35354 18-604) with S499A

[3] = biological target: T3, COX-2 activity in RAW 264.7 murine macrophage cell line (Mus musculus, UniProt Q05769); conditions: LPS-activated RAW 264.7; exogenous arachidonic acid; read-out: IC50 for inhibition of PGD2 synthesis; cited from earlier work
T3 construct: The macrophages were exposed to lipopolysaccharide and γ-interferon to induce COX-2; endogenous in cells
T3 sequence (Q05769 18-604): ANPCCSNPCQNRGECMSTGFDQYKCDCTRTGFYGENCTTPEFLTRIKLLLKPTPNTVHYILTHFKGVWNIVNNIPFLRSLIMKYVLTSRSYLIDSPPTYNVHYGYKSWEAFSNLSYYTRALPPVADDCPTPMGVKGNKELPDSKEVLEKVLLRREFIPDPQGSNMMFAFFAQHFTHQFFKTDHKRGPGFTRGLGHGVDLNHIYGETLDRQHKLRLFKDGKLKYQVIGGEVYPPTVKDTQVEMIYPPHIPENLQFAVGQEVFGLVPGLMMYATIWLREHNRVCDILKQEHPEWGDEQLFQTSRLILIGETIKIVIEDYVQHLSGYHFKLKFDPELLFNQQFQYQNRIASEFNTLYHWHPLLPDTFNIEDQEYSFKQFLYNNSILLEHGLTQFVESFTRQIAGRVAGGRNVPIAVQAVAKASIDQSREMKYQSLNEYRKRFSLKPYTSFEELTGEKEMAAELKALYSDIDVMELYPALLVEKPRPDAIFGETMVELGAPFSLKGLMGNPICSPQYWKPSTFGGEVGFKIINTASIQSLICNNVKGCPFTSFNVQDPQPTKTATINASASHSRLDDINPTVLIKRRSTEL

HCA-7 colon cancer cells = conditions: HCA-7 cells, express high levels of COX-2; read-out: IC50 growth in soft agar; cited from earlier work
[4] = test system: HCT-15 colon cancer cells; conditions: HCT-15 cells, do not express COX-2; cited from earlier work
[5] = test system: PGE2 in pouch exudate (COX-2 activity); conditions: cited from earlier work
[6] = test system: serum thromboxane B2 (COX-1 activity); conditions: cited from earlier work
COX-2 [7] = biological target: T1, COX-2; experiment: Inhibition of purified COX-2 by NSAID derivatives (species not stated); assay type: biochemical; conditions: purified COX-2
Description: (§1) While the TLC assay described above provides considerable information, it is labor-intensive for screening large numbers of candidate NSAID derivatives. Accordingly, as an alternative, a simplified assay can be used. Incubation conditions can be essentially as described above, except all candidate derivatives are first screened at a concentration of 1 mM with a preincubation time of 30 minutes. The substrate need not be radiolabeled, and the reaction can be stopped by the addition of 2 μL of formic acid. Product formation can be quantitated by enzyme-linked immunosorbent assay (ELISA) using commercially available kits. […] Other in vitro assay methods for screening NSAID derivatives for activity (e.g., selectivity for the COX-2 enzyme) can also be used by the skilled artisan.

COX-1 [8] = biological target: T4, COX-1 (Ovis aries, UniProt P05979); experiment: Inhibition of COX-1 by NSAID derivatives (species not stated); assay type: biochemical
T4 sequence (P05979 25-600): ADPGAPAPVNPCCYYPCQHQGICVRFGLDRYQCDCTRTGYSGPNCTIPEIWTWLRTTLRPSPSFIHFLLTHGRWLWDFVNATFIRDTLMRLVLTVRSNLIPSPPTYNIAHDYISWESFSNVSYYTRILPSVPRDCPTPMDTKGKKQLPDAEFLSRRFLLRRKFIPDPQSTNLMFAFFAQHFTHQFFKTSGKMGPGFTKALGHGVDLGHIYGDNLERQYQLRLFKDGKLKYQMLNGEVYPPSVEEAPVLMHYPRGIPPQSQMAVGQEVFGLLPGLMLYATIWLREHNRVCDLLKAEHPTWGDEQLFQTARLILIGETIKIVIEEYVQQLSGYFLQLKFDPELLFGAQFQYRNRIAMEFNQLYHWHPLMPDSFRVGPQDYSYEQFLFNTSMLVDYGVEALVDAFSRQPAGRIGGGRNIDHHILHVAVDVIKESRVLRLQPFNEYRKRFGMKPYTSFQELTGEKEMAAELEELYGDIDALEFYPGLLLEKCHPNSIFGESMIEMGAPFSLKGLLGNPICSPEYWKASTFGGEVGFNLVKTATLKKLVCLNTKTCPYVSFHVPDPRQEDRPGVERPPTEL
Description: as §1

[9] = biological target: T3, COX-2 activity in RAW 264.7 murine macrophage cell line; experiment: Inhibition of COX-2 activity (PGD2 synthesis) in activated RAW264.7 macrophages; assay type: cell-based
Text: Thus, NSAID derivatives that are identified as potentially useful in the methods described herein can be further tested using, for example, the RAW264.7 murine macrophage cell line. These cells are readily available (for example, from the American Type Culture Collection, Manassas, Va., United States of America) and are easily cultured in large numbers. They normally express low levels of COX-1 and very low to undetectable levels of COX-2. Upon exposure to bacterial lipopolysaccharide (LPS), however, COX-2 levels increase dramatically over the ensuing 24 hour period, and the cells produce PGD2 and PGE2 from endogenous arachidonic acid stores (generally, ˜1 nmol/10^7 cells total PG formation). After LPS exposure, the addition of exogenous arachidonic acid results in the formation of additional PGD2 and PGE2 as a result of metabolism by the newly synthesized COX-2.
This system provides a number of approaches for testing the inhibitory potency of COX-2-selective ligands (e.g., inhibitors). In general, following LPS activation, cells can be treated for 30 minutes with the desired concentrations of candidate derivative(s) in DMSO. ^14C-arachidonic acid can be added, and the cells can be incubated for 15 minutes at 37° C. Product formation can be assessed following extraction and TLC separation of the culture medium. Alternatively, the effects of candidate derivatives on PG synthesis from endogenous arachidonic acid can be assessed by incubating cells with desired concentrations of candidate derivatives 30 minutes prior to LPS exposure. Following a 24 hour incubation, medium can be collected and extracted, and the amount of PGD2 and/or PGE2 can be assayed by gas chromatography-mass spectrometry, liquid chromatography-mass spectrometry, or ELISA.
Inhibition of COX-2 Activity in Activated RAW264.7. Protocols for COX-2 inhibition in RAW264.7 cells have been previously described (Kalgutkar et al., 1998b). Briefly, cells (6.2×10^6 cells/T25 flask) were activated with lipopolysaccharide (1 μg/mL) and γ-interferon (10 U/mL) in serum-free DMEM for 7 hours and then treated with inhibitor (0-2 μM) for 30 minutes at 37° C. Exogenous arachidonate metabolism was determined by adding [1-^14C]-arachidonate acid (20 μM) for 15 minutes at 37° C. IC50 values are the average of two independent determinations.
The macrophages were exposed to lipopolysaccharide and γ-interferon to induce COX-2 and then treated with several concentrations of Compound 355.

COX-2 [10] = biological target: T1, COX-2; experiment: biochemical
Description: (§2) One example of an in vitro screening method takes advantage of the fact that both human and murine recombinant COX-2 can be expressed and isolated in pure form from an Sf-9 cell expression system. Briefly, typical assays involve the incubation of COX-1 (44 nM) or COX-2 (66 nM) in a 200 μL reaction mixture containing 100 mM Tris-HCl, pH 8.0, 500 μM phenol and 50 μM ^14C-arachidonic acid (55 mCi/mmol) for 30 seconds at 37° C. […] The reaction is stopped by the addition of 200 μL of ethanol/methanol/1 M citrate, pH 4.0 (30:4:1). The extracted products are separated by thin layer chromatography (TLC), which allows quantitation of total product formation as well as assessment of product distribution. This assay is useful to define IC50 values for inhibition of either enzyme, and to determine time-dependency of inhibition. It also provides information concerning changes in products formed as a result of inhibition.
(§3) Apoenzyme was reconstituted by the addition of hematin to the assay mixtures. Human COX-2 was expressed in Sf9 insect cells by means of the pVL 1393 expression vector (BD Biosciences Pharmingen, San Diego, Calif., United States of America) and purified by ion exchange and gel filtration chromatography. […]
(§4) IC50 values for the inhibition of purified human COX-2 or ovine COX-1 by test compounds were determined by thin layer chromatography (TLC) radiography. […]

ovine COX-1 = biological target: T5, ovine COX-1 (Ovis aries, UniProt P05979); experiment: Inhibition of purified ovine COX-1, TLC assay
T5 sequence (P05979 25-600): T4 sequence (P05979 25-600)
Description: as §2, §3, §4

COX-1 [11] = biological target: T4, COX-1; conditions: cited from earlier work
[12] = Rattus norvegicus, po, maximal edema 3 hours after carageenan injection, read-out: ED50 inhibition of edema formation
[13] = activated RAW 264.7 cells, read-out: IC50 for inhibition of PGD2 synthesis/production

IC50 (COX-2 [7]): 50 nM
IC50 (COX-1 [8]): > 50000 nM
IC50 ([9]; read-out: IC50 for inhibition of COX-2 activity in RAW 264.7 macrophages): 3500 nM
Structure (SMILES): COc1ccc2c(c1)c(CC(=O)NCCOC(=O)c1cc(I)cc(I)c1I)c(C)n2C(=O)c1ccc(Cl)cc1 [Compound 5]

IC50 (COX-2 [7]): 80 nM
IC50 (COX-1 [8]): > 65000 nM
IC50 [9, 13]: 200 nM
Structure (SMILES): O=C(c1ccccc1)c1ccc2n1CCC2C(=O)NCc1ccc(F)cc1 (stereo not shown) [Compound 19, p-fluorobenzyl derivative of ketorolac amide]

IC50 [9, 13]: 500 nM
IC50 (COX-2 [10]): 103 nM
IC50 (ovine COX-1): > 60000 nM
Structure (SMILES): COc1ccc2c(c1)c(CC(=O)NCCNC(=O)c1ccc(F)cc1)c(C)n2C(=O)c1ccc(Cl)cc1 [Compound 355, N-(2-{2-[1-(4-Chloro-benzoyl)-5-methoxy-2-methyl-1H-indol-3-yl]-acetylamino}-ethyl)-4-fluoro-benzamide]

IC50 (COX-2 [10]): 100 nM
IC50 (ovine COX-1): > 60000 nM
Structure (SMILES): COc1ccc2c(c1)c(CC(=O)Nc1ccc(F)cc1)c(C)n2C(=O)c1ccc(Cl)cc1F [Compound 360, 2-[1-(4-Chloro-2-fluoro-benzoyl)-5-methoxy-2-methyl-1H-indol-3-yl]-N-(4-fluoro-phenyl)-acetamide]

Continued, compound first:

Structure (SMILES): CCCCC#CCSc1ccccc1OC(C)=O [APHS, o-(acetoxyphenyl)hept-2-ynyl sulfide]
ED50 [1, 12]: 6 mg/kg
toxicities by gross or histopathological evaluation (Sprague-Dawley rats): no detectable toxicities
gastric toxicity (gastric lesions): no gastric toxicity
selectivity for COX-2 relative to aspirin (COX-2 [2]): 100 times
time to complete inactivation of COX-2 (COX-2 [2]): ≤ 30 min
kinact/Ki (COX-2 [2]; irreversible inactivation of COX-2): ~3000 M⁻¹ s⁻¹
inhibitory effect on S516A mutant of COX-2 (S516A mutant of COX-2): resistant
IC50 [3]: 120 nM
IC50 (HCA-7 colon cancer cells): 2000 nM
effect on growth [4]: no effect
reduction of PGE2 levels in pouch exudate ([5]; dose of 5 mg/kg): 95%
reduction of pouch PGE2 levels ([5]; dose of 50 mg/kg): 100%
effect on serum TXB2 levels ([6]; dose of 5 mg/kg): no effect
reduction of serum TXB2 levels ([6]; dose of 50 mg/kg): 11%

Structure (SMILES): CC(=O)Oc1ccccc1C(=O)O [aspirin]
ED50 [1, 12]: 125 mg/kg
potency against COX-1 relative to COX-2 (COX-1 [11]): 10-100 times

Structure (SMILES): COc1ccc2c(c1)c(CC(=O)O)c(C)n2C(=O)c1ccc(Cl)cc1 [indomethacin]
ED50 ([1]; rat carageenan footpad model (Example 14), read-out: ED50): 2 mg/kg
reduction of PGE2 levels ([5]; 2 mg/kg dose): 100%
reduction of TXB2 levels ([6]; 2 mg/kg dose): 90%

Structure (SMILES): CSc1ccccc1OC(C)=O [o-(Acetoxyphenyl)methyl sulfide]
inhibitory potency and selectivity for COX-2 (COX-2 [2]): moderate
